Measured values taken from patent US20250283019A1, “NEURO-INTEGRATED BIOREACTOR SYSTEM FOR STUDYING JOINT PAIN AND TREATMENT THEREOF” (University of Pittsburgh - Of the Commonwealth System of …, priority 2022, published 2025).

Legend:
sensory neurons = assay: Sensitization of sensory neurons in fura-2 Ca2+ imaging and whole cell patch recordings; assay type: cell-based
Excerpt: Macrophages can be added to any of the tissue scaffolds in the bioreactor to assess their contribution to joint pain modeled by the neu-microJoint bioreactor. M1 macrophages are a classically activated pro-inflammatory cell type that express pro-inflammatory cytokines, chemokines and many other substances. M2 macrophages are alternatively activated and have an anti-inflammatory pro-tissue regenerative phenotype.

[1] = tested on: cartilage (in the upper part of the bone/cartilage chamber); assay: IL1β OA model in the neu-microJoint bioreactor: mRNA expression in cartilage; assay type: cell-based, human; conditions: IL1β applied to the synovium flow only; cartilage not directly exposed; 10 ng/mL for 1 week
Excerpt: For the tissue scaffolds containing synovial cells, adipose cells, chondrocytes, or osteocytes, human mesenchymal stem cells (MSCs, >98% positive to CD73, 90, 105 and >99% negative to CD31, 34, 45, capable of colony formation and trilineage differentiation) or human iPSCs-derived MSCs (iMPCs) are encapsulated in photo-crosslinked gelatin scaffolds, and then subjected to tissue specific media to generate individual synovium, adipose, osteochondral tissues, as well as an additional individual macrophage component. After maturation, these tissue constructs are assembled with the chamber body inserts as described herein and inserted into the outer chambers of the neu-microJoint bioreactor, the fluid conduits are tapped and connected to suitable tubing, and tissue culture medium is pumped through the device to perfuse the tissue scaffolds. […]
Since IL1β that is used to generate the OA model is only applied to the flow of synovium, it indirectly stimulates the other tissues. […] As this may be part of the OA process, retrograde tracers may be used to distinguish activity in neurons innervating the synovium chamber from those innervating other chambers, and corresponding neural activity is monitored.

DRG neurons = assay: Spiking of DRG neurons on MEAs in the central chamber of the neu-microJoint bioreactor in response to KCl; assay type: cell-based; conditions: 30 mM KCl; DRG neurons cultured on MEAs for 4 days; screened with 10, 30 and 50 mM; little to no spontaneous activity at baseline
Description: Acutely dissociated DRG neurons are plated in the neural chamber and cultured in 2D at a density of […] to enable recording of neural activity, for example with microelectrodes or MEAs embedded in the floor of the chamber.
To enable recording of neural activity, sensory neurons are plated on a high-density microelectrode array (MEA) embedded in the floor of the neuron bioreactor chamber. Additionally, over the course of 28 days, the neurites reach the synovium, bone, and adipose chambers. In addition, they are functional, as assessed by the ability to maintain physiological cytosolic Ca^2+ concentrations (˜100 nM), a healthy resting membrane potential <−50 mV, and overshooting action potentials in response to physiological stimuli.
DRG neurons cultured on MEAs for 4 days in the central chamber of the neu-microJoint bioreactor were screened with increasing concentrations of KCl (10, 30, and 50 mM) to detect spiking.

| Compound | sensitization of sensory neurons (sensory neurons) | other results |
| --- | --- | --- |
| tumor necrosis factor (TNF)-α | sensitize sensory neurons | – |
| CCCCC[C@H](O)/C=C/[C@H]1[C@H](O)CC(=O)[C@@H]1C/C=C\CCCC(=O)O [PGE2, prostaglandin E2] | sensitize sensory neurons | – |
| IL-6: factor generated by M1 macrophages; cytokine | sensitize sensory neurons | – |
| IL1β: cytokine used to trigger OA conditions in the outer chambers | – | ADAMTS 4 mRNA expression in cartilage [1]: significant increases; MMP13 mRNA expression in cartilage [1]: significant increases |
| [Cl-].[K+] [KCl] | – | spiking activity of DRG neurons (DRG neurons): activity was detected |
